{"source": "paper PMC4506092", "about": "“Utilizing Chemical Genomics to Identify Cytochrome b as a Novel Drug Target for Chagas Disease” (PLoS Pathogens, 2015)", "origin": "cited, not measured here", "tested_on": "T. cruzi infection", "settings": "cited from earlier work; for Parasitological cure rates: Chagas disease patients, clinical testing"}
{"compound": "C[C@@H](c1nc(-c2ccc(C#N)cc2)cs1)[C@@](Cn1cncn1)(OCOP(=O)(O)O)c1ccc(F)cc1F", "note": "[Compound E1224]", "values": [{"measurement": "Parasitological cure rates", "value": "20–30%"}, {"measurement": "Patients with failure to cure infection", "setting": "treated Chagas patients", "value": "~ 70%"}]}
{"compound": "CC[C@@H]([C@H](C)O)n1ncn(-c2ccc(N3CCN(c4ccc(OC[C@@H]5CO[C@@](Cn6cncn6)(c6ccc(F)cc6F)C5)cc4)CC3)cc2)c1=O", "note": "[posaconazole]", "values": [{"measurement": "Parasitological cure rates", "value": "20–30%"}, {"measurement": "Patients with recrudescence of infection", "setting": "Chagas patients, 60-day treatment, determined by PCR", "value": 81, "unit": "%"}]}
